From paper PMC4897788, “Design, biological evaluation and 3D QSAR studies of novel dioxin-containing pyrazoline derivatives with thiourea skeleton as selective HER-2 inhibitors” (Scientific Reports, 2016)

How the values were obtained:
[1] = tested on: MCF-7 human breast cancer cell line; assay: Anti-proliferation assay (MTT), MCF-7; assay type: cell-based; conditions: MCF7, 24 h
Experimental: (§1) MCF-7 human breast cancer cells was cultured in DMEM/10% fetal bovine serum, in 5% CO2 water saturated atmosphere at 37 °C. MDA-MB-453 human breast cancer cells was cultured in L-15 medium in 100% air at 37 °C. Cell suspensions (10000/mL) were prepared and 100 μL/well dispensed into 96-well plates (Costar) giving 1000 cells/well. The plates were returned to the incubator for 24 h to allow the cells to reattach. These compounds were initially prepared at 20 mM in DMSO. Aliquots (200 μL) were diluted into 20 mL culture medium giving 200 μM, and 10 serial dilutions of 3× prepared. Aliquots (100 μL) of each dilution were added to the wells, giving doses ranging from 100 μM to 0.005 μM. After a further incubated at 37 °C for 24 h in a humidified atmosphere with 5% CO2, the cell viability was assessed by the conventional 3-(4,5-dimethylthiazol-2-yl)-2,5-diphenyltetrazolium bromide (MTT) reduction assay and carried out strictly according to the manufacturer instructions (Sigma). The absorbance at 590 nm was recorded using LX300 Epson Diagnostic micro-plate reader. Then GI50 was calculated using SPSS 13.0 software.

human erythrocytes = assay: Hemolysis test; assay type: cell-based; conditions: lytic concentration 30%
Experimental: Hemolytic activity was assayed using fresh capillary human blood. Erythrocytes were collected by centrifuging the blood three times in chilled phosphate buffered saline (PBS at 4 °C) at 1000 × g for 10 min. The final pellet was resuspended in PBS to give a 2% w/v solution. Using a microtitre plate, 100 μL of the erythrocyte solution was added to dextran, PLL, stearyl-PLL or stearyl-PLL+ LDL (1–1000/μg/mL) in a volume of […]. Samples were then incubated for 3 h and the microtitre plate was centrifuged then at 1000 × g for 10 min and the supernatants (100 μL) transferred into a new microtitre plate. Hemoglobin release was determined spectrophotometrically using a microtitre plate reader (absorbance at 550 nm). Results were expressed as the amount of released hemoglobin induced by the compounds as a percentage of the total. Hemolysis test was tested according to the guide of biological evaluation of medical device (SFDA, China).

[2] = tested on: MDA-MB-453 human breast cancer cell line; assay: Anti-proliferation assay (MTT), MDA-MB-453; assay type: cell-based; conditions: 24 h
Experimental: as §1

HER-3 = molecular target: T1, HER-3 (Homo sapiens, UniProt P21860); assay: HER-3 inhibitory assay; assay type: biochemical
T1 construct: HER-3 cytoplasmic domain (HER-3-CD, amino acids 665–1339); His6 (N); made in house
T1 sequence (P21860 665-1339): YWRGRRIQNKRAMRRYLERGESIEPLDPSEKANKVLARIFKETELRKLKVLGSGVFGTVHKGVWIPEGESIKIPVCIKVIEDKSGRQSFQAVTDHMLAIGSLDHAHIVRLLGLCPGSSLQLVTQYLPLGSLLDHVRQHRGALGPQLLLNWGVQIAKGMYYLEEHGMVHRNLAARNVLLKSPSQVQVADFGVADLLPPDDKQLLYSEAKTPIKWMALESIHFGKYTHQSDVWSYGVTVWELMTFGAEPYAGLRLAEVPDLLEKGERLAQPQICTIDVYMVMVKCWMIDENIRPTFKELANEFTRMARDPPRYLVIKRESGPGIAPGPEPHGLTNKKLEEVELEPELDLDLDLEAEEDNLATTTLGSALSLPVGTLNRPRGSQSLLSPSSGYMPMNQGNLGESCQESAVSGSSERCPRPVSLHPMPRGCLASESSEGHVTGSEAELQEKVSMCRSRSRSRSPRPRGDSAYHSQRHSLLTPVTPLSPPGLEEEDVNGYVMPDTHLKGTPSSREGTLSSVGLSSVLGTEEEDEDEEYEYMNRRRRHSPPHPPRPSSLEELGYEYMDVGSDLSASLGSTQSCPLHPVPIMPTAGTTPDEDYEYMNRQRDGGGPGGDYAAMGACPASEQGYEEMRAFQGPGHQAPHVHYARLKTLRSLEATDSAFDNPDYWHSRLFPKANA
Experimental: A sequence that encodes (His)6 was located at the 5′ upstream to the HER-2 and EGFR sequences. Sf-9 cells were infected for 3 days for protein expression. Sf-9 cell pellets were solubilized at 0 °C in a buffer at pH 7.4 containing 50 mM HEPES, 10 mM NaCl, 1% Triton, 10 μM ammonium molybdate, 100 μM sodium vanadate, 10 μg/mL aprotinin, 10 μg/mL leupeptin, 10 μg/mL pepstatin, and 16 μg/mL benzamidine, HCl for 20 min followed by 20 min centrifugation. Crude extract supernatant was passed through an equilibrated Ni–NTA superflow packed column and washed with 10 mM and then 100 mM imidazole to remove nonspecifically bound material. Histidine-tagged proteins were eluted with 250 and 500 mM imidazole and dialyzed against 50 mM NaCl, 20 mM HEPES, 10% glycerol and 1 μg/mL each of aprotinin, leupeptin, and pepstatin for 2 h. The entire purification procedure was performed at 4 °C or on ice.
A 1.8 Kb cDNA encoded for human HER-3 cytoplasmic domain (HER-3-CD, amino acids 665–1339) was applied to perform the experiment using the same method as EGFR/HER-2.

VEGFR-2 = molecular target: T2, VEGFR-2 (Homo sapiens, UniProt P35968); assay: VEGFR-2 inhibitory assay; assay type: biochemical
T2 construct: either the phosphorylated or nonphosphorylated form of the VEGFR-2 kinase domain
Experimental: In a 96-well plate, 5 nM/L of either the phosphorylated or nonphosphorylated form of the VEGFR-2 kinase domain was incubated with selected compounds (10-point titration ranging from 4 μM to 0.1 μM), 1 μM/L gastrin substrate, 20 mM/L Tris-HCl, pH 7.5, 10 mM/L MgCl2, 100 mM/L NaCl, 1.5 mM/L EGTA, 1 mM/L DTT, 0.2 mM/L sodium orthovanadate, and 20 μg/mL BSA for 30 min at 25 °C. ATP was added at a final concentration of 11.8 μM and incubated for 60 min at room temperature. Eu-labeled antiphosphotyrosine pT66 antibody (Perkin- Elmer) was then used for detection. The fluorescence at 665 nM was measured with a Wallac Victor plate reader using a time delay of 50 μs. The experiment was performed for three independent times and in triplicate each time.

HER-2 = HER-2 (Homo sapiens, UniProt P04626); assay: HER-2 autophosphorylation kinase assay (DELFIA/time-resolved fluorometry); conditions: for SI EGFR/HER-2: selectivity index, IC50 EGFR/IC50 HER-2
Experimental: (§2) Both EGFR and HER-2 kinase assays were set up to assess the level of autophosphorylation based on DELFIA/Time-Resolved Fluorometry. […] Then, 10 μL of 5× buffer (containing 20 mM HEPES, 2 mM MnCl2, 100 μM Na3VO4, and 1 mM DTT) and 20 μL of 0.1 mM ATP-50 mM MgCl2 was added for 1 h. Positive and negative controls were included in each plate by incubation of enzyme with or without ATP-MgCl2. At the end of incubation, liquid was aspirated and plates were washed three times with wash buffer. A 75 μL (400 ng) sample of europium-labeled anti-phosphotyrosine antibody was added to each well for another 1 h of incubation. […] The IC50 was obtained from curves of percentage inhibition with eight concentrations of compound. As the contaminants in the enzyme preparation are fairly low, the majority of the signal detected by the anti-phosphotyrosine antibody is from EGFR or HER-2. The experiment was performed for three independent times and in triplicate each time.

[3] = Cytotoxicity test (MTT), NIH-3T3; assay type: cell-based; conditions: mouse, NIH-3T3 mouse embryonic fibroblast cells, NIH3T3
Experimental: The cytotoxic activity in vitro was measured against mouse fibroblast NIH-3T3 cell using the MTT assay. Cells were cultured in a 96-well plate at a density of 5 × 10^5 cells and different concentrations of compounds were respectively added to each well. The incubation was permitted at 37 °C, 5% CO2 atmosphere for 24 h before the cytotoxicity assessments. 20 μL MTT reagent (4 mg/mL) was added per well 4 h before the end of the incubation. Four hours later, the plate was centrifuged at 1200 rcf for 5 min and the supernatants were removed, each well was added with 200 μL DMSO. The absorbance was measured at a wavelength of 490 nm (OD 490 nm) on an ELISA microplate reader. Three replicate wells were used for each concentration and each assay was measured three times, after which the average of IC50 was calculated. The cytotoxicity of each compound was expressed as the concentration of compound that reduced cell viability to 50% (IC50).

FAK = molecular target: T3, FAK (Homo sapiens, UniProt Q05397); assay: FAK inhibitory assay (Kinase-Glo); assay type: biochemical
T3 construct: human-recombinant full-length FAK
Experimental: Selected compounds were tested against FAK. In a typical study, human-recombinant full-length FAK was incubated in kinase buffer containing ATP and the substrate for 4 h at room temperature with or without the presence of the corresponding coumpounds. The final concentration of drug as 100, 30, 10, 3 μg/mL. The remaining ATP in solution was then quantified utilizing the Kinase-Glo-luminescence kit (Promega).

EGFR = EGFR (Homo sapiens, UniProt P00533); assay: EGFR autophosphorylation kinase assay (DELFIA/time-resolved fluorometry)
Chain of EGFR (P00533 669-1210): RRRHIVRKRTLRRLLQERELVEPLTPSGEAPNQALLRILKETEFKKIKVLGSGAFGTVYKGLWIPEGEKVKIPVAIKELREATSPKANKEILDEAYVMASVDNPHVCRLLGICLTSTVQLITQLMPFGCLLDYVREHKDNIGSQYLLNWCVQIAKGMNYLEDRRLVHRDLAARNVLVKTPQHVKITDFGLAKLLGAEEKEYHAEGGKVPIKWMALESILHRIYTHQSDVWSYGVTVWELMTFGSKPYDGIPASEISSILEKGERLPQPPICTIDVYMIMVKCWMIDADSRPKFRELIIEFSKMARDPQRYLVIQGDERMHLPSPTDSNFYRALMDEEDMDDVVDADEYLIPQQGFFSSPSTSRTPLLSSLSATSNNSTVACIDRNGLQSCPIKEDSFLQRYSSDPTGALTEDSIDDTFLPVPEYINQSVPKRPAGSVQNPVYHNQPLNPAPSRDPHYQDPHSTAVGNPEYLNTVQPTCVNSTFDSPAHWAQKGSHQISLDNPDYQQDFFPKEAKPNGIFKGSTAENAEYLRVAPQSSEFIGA
Experimental: as §2

T2 sequence (P35968 834-1162 limits assumed, species assumed): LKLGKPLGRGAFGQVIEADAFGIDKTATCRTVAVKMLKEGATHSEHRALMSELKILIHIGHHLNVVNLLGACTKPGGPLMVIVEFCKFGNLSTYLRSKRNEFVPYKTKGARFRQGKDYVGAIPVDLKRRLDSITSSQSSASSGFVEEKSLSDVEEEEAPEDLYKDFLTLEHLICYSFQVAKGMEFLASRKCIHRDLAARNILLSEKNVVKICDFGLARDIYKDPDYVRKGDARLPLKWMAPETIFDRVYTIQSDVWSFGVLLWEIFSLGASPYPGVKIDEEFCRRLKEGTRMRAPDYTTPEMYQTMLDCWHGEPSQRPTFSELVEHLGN
T3 sequence (Q05397 whole entry): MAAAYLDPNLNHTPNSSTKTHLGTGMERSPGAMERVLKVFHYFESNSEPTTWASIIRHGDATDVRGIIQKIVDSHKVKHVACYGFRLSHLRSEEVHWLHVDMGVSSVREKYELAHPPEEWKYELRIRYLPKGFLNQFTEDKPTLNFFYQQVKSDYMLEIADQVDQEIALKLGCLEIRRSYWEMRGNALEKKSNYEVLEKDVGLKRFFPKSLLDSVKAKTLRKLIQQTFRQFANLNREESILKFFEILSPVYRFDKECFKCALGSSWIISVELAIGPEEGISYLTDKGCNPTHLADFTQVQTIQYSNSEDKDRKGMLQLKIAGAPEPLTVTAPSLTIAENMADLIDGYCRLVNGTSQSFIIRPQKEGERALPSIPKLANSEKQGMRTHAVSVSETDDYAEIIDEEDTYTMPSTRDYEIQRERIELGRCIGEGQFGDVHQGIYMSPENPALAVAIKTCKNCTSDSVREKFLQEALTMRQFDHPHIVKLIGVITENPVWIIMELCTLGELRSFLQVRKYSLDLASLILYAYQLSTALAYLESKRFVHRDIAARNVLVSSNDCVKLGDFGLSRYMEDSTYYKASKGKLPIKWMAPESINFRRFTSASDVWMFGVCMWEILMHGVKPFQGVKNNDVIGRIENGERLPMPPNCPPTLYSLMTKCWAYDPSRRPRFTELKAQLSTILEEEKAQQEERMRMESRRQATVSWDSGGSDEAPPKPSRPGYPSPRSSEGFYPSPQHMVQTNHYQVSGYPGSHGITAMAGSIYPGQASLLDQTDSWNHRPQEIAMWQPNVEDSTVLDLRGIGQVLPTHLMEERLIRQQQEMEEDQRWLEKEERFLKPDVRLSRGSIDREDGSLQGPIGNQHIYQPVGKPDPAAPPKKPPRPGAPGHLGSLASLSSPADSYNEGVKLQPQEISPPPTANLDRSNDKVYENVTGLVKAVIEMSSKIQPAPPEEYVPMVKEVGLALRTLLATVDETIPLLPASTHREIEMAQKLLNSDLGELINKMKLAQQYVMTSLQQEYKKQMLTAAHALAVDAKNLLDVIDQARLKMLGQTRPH
Chain of HER-2 (P04626 676-1245): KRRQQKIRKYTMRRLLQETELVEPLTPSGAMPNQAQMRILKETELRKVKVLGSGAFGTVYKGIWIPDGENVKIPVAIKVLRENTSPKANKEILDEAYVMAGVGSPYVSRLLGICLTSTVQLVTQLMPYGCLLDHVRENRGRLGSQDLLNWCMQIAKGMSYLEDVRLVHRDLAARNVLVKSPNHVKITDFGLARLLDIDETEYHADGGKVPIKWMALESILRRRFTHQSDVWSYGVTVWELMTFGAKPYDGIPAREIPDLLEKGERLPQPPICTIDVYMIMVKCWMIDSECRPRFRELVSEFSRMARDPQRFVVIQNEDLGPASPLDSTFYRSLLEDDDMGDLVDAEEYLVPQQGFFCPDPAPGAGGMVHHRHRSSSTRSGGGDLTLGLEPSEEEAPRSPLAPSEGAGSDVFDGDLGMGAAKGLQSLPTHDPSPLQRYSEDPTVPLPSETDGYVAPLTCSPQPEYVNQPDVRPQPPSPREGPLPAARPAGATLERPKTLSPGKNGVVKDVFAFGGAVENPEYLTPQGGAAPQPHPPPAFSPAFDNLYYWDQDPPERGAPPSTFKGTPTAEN

| SMILES | melting point | GI50 [1] | Hemolysis LC30 (human erythrocytes) | GI50 [2] | IC50 (HER-3) | IC50 (VEGFR-2) | IC50 (HER-2) | SI EGFR/HER-2 (HER-2) | GI50 at 24 h [3] | IC50 (FAK) | IC50 (EGFR) |
| --- | --- | --- | --- | --- | --- | --- | --- | --- | --- | --- | --- |
| Cc1ccc(C2CC(c3ccc4c(c3)OCCO4)=NN2C(N)=S)cc1 (centres unmarked) [Compound C9, 3-(2,3-dihydrobenzo[b][1,4]dioxin-6-yl)-5-(p-tolyl)-4,5-dihydro-1H-pyrazole-1-carbothioamide] |  | 56.2 ± 5.41 µM | >10000 µg/mL | 1.38 ± 0.12 µM | 6.32 ± 0.58 µM | 11.5 ± 1.07 µM | 0.37 ± 0.03 µM | 176.1 | 199.1 ± 1.6 µM | 36.1 ± 3.21 µM | 65.2 ± 5.88 µM |
| COc1ccc(C2CC(c3ccc4c(c3)OCCO4)=NN2C(N)=S)cc1 (centres unmarked) [Compound C10, 3-(2,3-dihydrobenzo[b][1,4]dioxin-6-yl)-5-(4-methoxyphenyl)-4,5-dihydro-1H-pyrazole-1-carbothioamide] |  | 18.2 ± 1.71 µM | >10000 µg/mL | 0.25 ± 0.02 µM | 10.7 ± 0.96 µM | 6.91 ± 0.64 µM | 0.08 ± 0.006 µM | 474.4 | 204 ± 3.05 µM | 64 ± 5.95 µM | 37.9 ± 3.75 µM |
| NC(=S)N1N=C(c2ccc3c(c2)OCCO3)CC1c1ccc(Br)cc1 (centres unmarked) [Compound C13, 5-(4-bromophenyl)-3-(2,3-dihydrobenzo[b][1,4]dioxin-6-yl)-4,5-dihydro-1H-pyrazole-1-carbothioamide] |  | 123 ± 11.2 µM | >10000 µg/mL | 3.24 ± 0.3 µM | 2.46 ± 0.23 µM | 25.8 ± 2.41 µM | 0.8 ± 0.07 µM | 102.5 | 148 ± 2.02 µM | 36.5 ± 3.42 µM | 82 ± 7.84 µM |
| CSc1ccc(C2CC(c3ccc4c(c3)OCCO4)=NN2C(N)=S)cc1 (centres unmarked) [Compound C15, 3-(2,3-dihydrobenzo[b][1,4]dioxin-6-yl)-5-(4-(methylthio)phenyl)-4,5-dihydro-1H-pyrazole-1-carbothioamide] |  | 12.1 ± 1.17 µM | >10000 µg/mL | 0.95 ± 0.08 µM | 17.9 ± 1.48 µM | 8.75 ± 0.77 µM | 0.29 ± 0.02 µM | 94.8 | 154 ± 1.75 µM | 40.3 ± 3.88 µM | 27.5 ± 2.46 µM |
| NC(=S)N1N=C(c2ccc3c(c2)OCCO3)CC1c1ccc(C(F)(F)F)cc1 (centres unmarked) [Compound C17, 3-(2,3-dihydrobenzo[b][1,4]dioxin-6-yl)-5-(4-(trifluoromethyl)phenyl)-4,5-dihydro-1H-pyrazole-1-carbothioamide] |  | 96.4 ± 9.22 µM | >10000 µg/mL | 0.55 ± 0.02 µM | 8.45 ± 0.78 µM | 5.16 ± 0.5 µM | 0.21 ± 0.02 µM | 379.6 | 185 ± 3.15 µM | 30.1 ± 2.76 µM | 79.7 ± 7.01 µM |

Continued, in another order:

| melting point | SMILES | GI50 [1] | Hemolysis LC30 (human erythrocytes) | GI50 [2] | IC50 (HER-3) | IC50 (VEGFR-2) | IC50 (HER-2) | SI EGFR/HER-2 (HER-2) | GI50 at 24 h [3] | IC50 (FAK) | IC50 (EGFR) |
| --- | --- | --- | --- | --- | --- | --- | --- | --- | --- | --- | --- |
| 231 to 233 °C | NC(=S)N1N=C(c2ccc3c(c2)OCCO3)CC1c1ccc(Cl)cc1 (centres unmarked) [Compound C12, 5-(4-chlorophenyl)-3-(2,3-dihydrobenzo[b][1,4]dioxin-6-yl)-4,5-dihydro-1H-pyrazole-1-carbothioamide] | 33.9 ± 3.21 µM |  | 5.31 ± 0.48 µM |  |  | 0.84 ± 0.07 µM | 64.1 |  |  | 53.8 ± 5.12 µM |
| 259 to 261 °C | NC(=S)N1N=C(c2ccc3c(c2)OCCO3)CC1c1ccc(I)cc1 (centres unmarked) [Compound C14, 3-(2,3-dihydrobenzo[b][1,4]dioxin-6-yl)-5-(4-iodophenyl)-4,5-dihydro-1H-pyrazole-1-carbothioamide] | 135 ± 11.6 µM |  | 9.12 ± 0.89 µM |  |  | 1.23 ± 0.1 µM | 68.5 |  |  | 84.3 ± 7.81 µM |
| 197 to 199 °C | NC(=S)N1N=C(c2ccc3c(c2)OCCO3)CC1c1ccc(OCc2ccccc2)cc1 (centres unmarked) [Compound C16, 5-(4-(benzyloxy)phenyl)-3-(2,3-dihydrobenzo[b][1,4]dioxin-6-yl)-4,5-dihydro-1H-pyrazole-1-carbothioamide] | 5.99 ± 0.55 µM |  | 0.36 ± 0.03 µM |  |  | 0.13 ± 0.01 µM | 78.5 |  |  | 10.2 ± 0.94 µM |
| 208 to 209 °C | NC(=S)N1N=C(c2ccc3c(c2)OCCO3)CC1c1c(F)cccc1F (centres unmarked) [Compound C18, 5-(2,6-difluorophenyl)-3-(2,3-dihydrobenzo[b][1,4]dioxin-6-yl)-4,5-dihydro-1H-pyrazole-1-carbothioamide] | 15.2 ± 1.4 µM |  | 8.68 ± 0.84 µM |  |  | 0.96 ± 0.08 µM | 35.4 |  |  | 34 ± 3.08 µM |
| 174 to 175 °C | NC(=S)N1N=C(c2ccc3c(c2)OCCO3)CC1c1ccco1 (centres unmarked) [Compound C19, 3-(2,3-dihydrobenzo[b][1,4]dioxin-6-yl)-5-(furan-2-yl)-4,5-dihydro-1H-pyrazole-1-carbothioamide] | > 300 µM |  | 33.4 ± 2.95 µM |  |  | 12 ± 1.02 µM | 16.3 |  |  | 197 ± 18.5 µM |
